Article PMC2600596 (European journal of pharmacology, 2008)

Columns and labels:
[1] = target: T1, hMOR (human mu opioid receptor) (Homo sapiens, UniProt P35372); format: cell-based
[2] = target: T1, hMOR (human mu opioid receptor); format: binding
hMOR = settings: pH 7.5; cited from earlier work
mu opioid receptor = format: binding; settings: whole CHO cells, data not shown

T1 sequence (P35372 whole entry): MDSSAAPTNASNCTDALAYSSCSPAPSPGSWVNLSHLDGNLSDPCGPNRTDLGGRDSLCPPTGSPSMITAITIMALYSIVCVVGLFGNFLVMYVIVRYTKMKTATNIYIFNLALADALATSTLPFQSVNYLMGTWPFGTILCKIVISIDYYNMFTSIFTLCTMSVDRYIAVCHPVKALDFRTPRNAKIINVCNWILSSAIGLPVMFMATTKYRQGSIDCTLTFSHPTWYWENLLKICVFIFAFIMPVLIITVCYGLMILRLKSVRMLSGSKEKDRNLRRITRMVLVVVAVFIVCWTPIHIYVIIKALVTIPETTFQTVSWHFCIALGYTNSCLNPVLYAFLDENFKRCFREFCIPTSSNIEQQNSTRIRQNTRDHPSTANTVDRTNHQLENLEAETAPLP

SMILES	Imax (maximum percent inhibition of [3H]-cAMP accumulation) [1]	Hill Slope [2]	Ki (hMOR)	[3H]-naloxone radioligand binding displaced (mu opioid receptor)	Ki ([2]; pH 7.4)
C[C@@H](NC(=O)[C@@H](N)Cc1ccc(O)cc1)C(=O)NCC(=O)N(C)[C@@H](Cc1ccccc1)C(=O)NCCO [DAMGO, [D-Ala^2, N-Me-Phe^4, Gly^5-ol]-enkephalin]	88.8%	−0.85			
Oc1ccc2c3c1O[C@H]1c4[nH]c5ccccc5c4C[C@@]4(O)[C@@H](C2)N(CC2CC2)CC[C@]314 [Naltrindole, naltrindole]		−0.99	6.3 nM		
C=CC[N+]1(C)CC[C@]23c4c5ccc(O)c4O[C@H]2C(=O)CC[C@@]3(O)[C@H]1C5 (stereo partly shown) [naloxone methiodide]				More than 94%	
Oc1ccc2c3c1O[C@H]1c4[nH]c5c(c4C[C@@]4(O)[C@@H](C2)N(CC2CC2)CC[C@]314)C[C@@]1(O)[C@H]2Cc3ccc(O)c4c3[C@@]1(CCN2CC1CC1)[C@H]5O4 [nor-BNI, nor-binaltorphimine]		−0.99	21 nM		
COC(=O)/C=C/C(=O)N[C@@H]1CC[C@@]2(O)[C@H]3Cc4ccc(O)c5c4[C@@]2(CCN3CC2CC2)[C@H]1O5 [β-FNA, β-funaltrexamine]		−1.01	0.3 nM		1.85 nM
